This is an account of results in patent publication US7456225B1, “Liver protection compounds of the cyclohexenone type from Antrodia camphorata” (Golden Biotechnology Corporation, priority 2007, dated 2008).

SMILES strings stand for the structures.

Common to all, as to format: in vivo, Sprague-Dawley (SD) rats
Assay [1] in a line: Body weights of rats in CCl4 liver injury model. The conditions noted are these: CCl4-treated rats, stomach tube, 8th week. The method, then: The animal model was performed with five-week-old Sprague-Dawley (SD) rats purchased from BioLasco Taiwan Co., Ltd. Healthy rats weighing 220-270 g were chosen for experiment after observing for 2 weeks in the laboratory animal room. The rats were randomly divided into 6 groups (12 rats/group): normal (gp. A); control groups including model control (gp. B) and positive control (gp. C, animals receiving silymarin); treatment groups including animals receiving 300 mg/kg of cyclohexenone (gp. D), 1000 mg/kg of cyclohexenone (gp. E), and 3000 mg/kg of cyclohexenone (gp. F), as indicated in Table 1. Only normal group was not poisoned with CCl4. The body weights were recorded to calculate the dosage. […] It helps to remove toxins from liver cells by either neutralizing the toxicity of toxic compounds or competing with the binding sites in liver. It is a potent antioxidant, protects the liver from free radicals. It has been widely studied for treating various types of liver injury in animals and clinical trials. The beneficial effects on liver protection have made silymarin a good medicine for liver diseases and a drug in positive control group for the animal model of liver injury. Rats in normal group (group A) were fed with corn oil (Sigma chemical co.) by means of stomach tubes. Carbon tetrachloride (Shimakyu, Osaka, Japan) was administered to groups B to F via stomach tubes twice weekly (every Tuesday and Thursday afternoon) for 8 weeks, at a dose of 2 ml/kg of body weight, diluted with corn oil. Silymarin was prepared with saline in an amount of 200 mg/kg of body weight and was fed to rats of group C via a stomach tube. Cyclohexenone prepared from example 1 was mixed with saline, and fed in the amounts of 300 mg/kg, 1000 mg/kg and 3000 mg/kg of body weight to rats of group D to F via stomach tubes. The total feeding volume was estimated in the ratio of 10 ml/kg of body weight to groups C to F five days a week (every morning) for 8 weeks. The body weights of rats and the amounts of food intake in rats for each group were shown in FIG. 1 and FIG. 2, respectively. […]

The test system of assay [2] is CCl4 induced liver injury in rats. The assay is described as follows: Serum indicators of liver function (ALT, AST, cholesterol). As to conditions: CCl4-treated rats, 8 weeks. The method, then: (§1) The animal model was performed with five-week-old Sprague-Dawley (SD) rats purchased from BioLasco Taiwan Co., Ltd. Healthy rats weighing 220-270 g were chosen for experiment after observing for 2 weeks in the laboratory animal room. The rats were randomly divided into 6 groups (12 rats/group): normal (gp. A); control groups including model control (gp. B) and positive control (gp. C, animals receiving silymarin); treatment groups including animals receiving 300 mg/kg of cyclohexenone (gp. D), 1000 mg/kg of cyclohexenone (gp. E), and 3000 mg/kg of cyclohexenone (gp. F), as indicated in Table 1. Only normal group was not poisoned with CCl4. The body weights were recorded to calculate the dosage. […] It helps to remove toxins from liver cells by either neutralizing the toxicity of toxic compounds or competing with the binding sites in liver. It is a potent antioxidant, protects the liver from free radicals. It has been widely studied for treating various types of liver injury in animals and clinical trials. The beneficial effects on liver protection have made silymarin a good medicine for liver diseases and a drug in positive control group for the animal model of liver injury.
(§2) Rats in normal group (group A) were fed with corn oil (Sigma chemical co.) by means of stomach tubes. Carbon tetrachloride (Shimakyu, Osaka, Japan) was administered to groups B to F via stomach tubes twice weekly (every Tuesday and Thursday afternoon) for 8 weeks, at a dose of 2 ml/kg of body weight, diluted with corn oil. Silymarin was prepared with saline in an amount of 200 mg/kg of body weight and was fed to rats of group C via a stomach tube. Cyclohexenone prepared from example 1 was mixed with saline, and fed in the amounts of 300 mg/kg, 1000 mg/kg and 3000 mg/kg of body weight to rats of group D to F via stomach tubes. The total feeding volume was estimated in the ratio of 10 ml/kg of body weight to groups C to F five days a week (every morning) for 8 weeks. The body weights of rats and the amounts of food intake in rats for each group were shown in FIG. 1 and FIG. 2, respectively.
All rats were sacrificed at the end of the 8th week of experiment, blood samples were collected from abdominal aorta for assessing liver biochemical parameters. Five ml of blood were transferred to a tube and centrifuged at 775×g for 15 min. 0.5 ml of serum was analyzed on an Express plus automatic clinical chemistry analyzer (Chiron diagnostics corporation, OH, USA) with commercial kits of ALT (Bayer diagnostics, Cat No. E36941), AST (Bayer diagnostics, Cat No. E37041) and cholesterol (Bayer diagnostics, Cat No. E33940). All values are expressed as mean ±SD, which were evaluated using One-way Analysis of Variance. Those with significant differences were further tested with the Least Significant Difference Test (LSD) or Student t-test to compare cyclohexenone treatment groups and normal groups, positive control and model groups. P<0.05 was selected as criterion for statistical significance in all cases.

For assay [3], the system named is CCl4-induced liver injury in rats. The experiment in a line: Weights of liver, kidney and spleen relative to body weight after CCl4-induced liver injury. As to conditions: CCl4-treated rats, 8 weeks. The method, then: as §1, §2
All rats were sacrificed at the end of the 8th week of experiment. The weights of liver, kidney and spleen were recovered and weighted and compared with the body weights to calculate the ratios and observe the effects of cyclohexenone from Antrodia camphorata to CCl4 treatment. All values are expressed as mean ±SD, which were evaluated using One-way Analysis of Variance. Those with significant differences were further tested with the Least Significant Difference Test (LSD) or Student t-test to compare cyclohexenone treatment groups and normal groups, positive control and model groups. P<0.05 was selected as criterion for statistical significance in all cases.

Setting [4] is: cyclohexenone 1000 mg/kg, listed as cyclohexenone.

In the case of `COC1=C(OC)C(O)C(C/C=C(\C)CC/C=C(\C)CCC=C(C)C)C(C)C1=O` (centres unmarked) [Cyclohexenone from Antrodia camphorata, 4-hydroxy-2,3-dimethoxy-6-methyl-5(3,7,11-trimethyl-dodeca-2,6,10-trienyl)-cyclohex-2-enone], the body weight is recorded as 386.6 g in assay [1] (cyclohexenone 300 mg/kg), 365.1 g in assay [1] (cyclohexenone 1000 mg/kg) and 355.0 g in assay [1] (cyclohexenone 3000 mg/kg). Moreover, the ALT in assay [2] (cyclohexenone 300 mg/kg) worked out at 226.6 ± 138.7 a U/L; in assay [2] (cyclohexenone 1000 mg/kg), 181.7 ± 78.4 a U/L; in assay [2] (setting [4]) it was 181.7±78.4 U/L; in assay [2] (cyclohexenone 3000 mg/kg), 206.0 ± 98.4 a U/L. The AST in assay [2] (cyclohexenone 300 mg/kg) is given as 323.4 ± 189.0 U/L; in assay [2] (cyclohexenone 1000 mg/kg) it was 283.2 ± 144.2 U/L; in assay [2] (setting [4]) it was 283.2±144.2 U/L; in assay [2] (cyclohexenone 3000 mg/kg), 311.7 ± 99.6 U/L. Moreover, the Cholesterol is on record as 63.7 ± 15.1 mg/dL in assay [2] (cyclohexenone 300 mg/kg), 69.6 ± 14.8 mg/dL in assay [2] (cyclohexenone 1000 mg/kg) and 62.1 ± 16.2 mg/dL in assay [2] (cyclohexenone 3000 mg/kg). Besides, the figures for the “kidney to body weight ratio” value in assay [3] (cyclohexenone 300 mg/kg), in assay [3] (cyclohexenone 1000 mg/kg) and in assay [3] (cyclohexenone 3000 mg/kg) were 0.68 ± 0.06 %, 0.69 ± 0.13% and 0.73 ± 0.08 %, respectively. The “liver to body weight ratio” value in assay [3] (cyclohexenone 300 mg/kg) came to 3.29 ± 0.35%; in assay [3] (cyclohexenone 1000 mg/kg) it was 3.20 ± 0.47 %; in assay [3] (cyclohexenone 3000 mg/kg), 3.65 ± 0.53 %. The entries for the “spleen to body weight ratio” value in assay [3] (cyclohexenone 300 mg/kg), in assay [3] (cyclohexenone 1000 mg/kg) and in assay [3] (cyclohexenone 3000 mg/kg) were 0.20 ± 0.05 %, 0.22 ± 0.06 % and 0.30 ± 0.10 %, respectively.
